From ChEMBL document CHEMBL4330075, “Discovery of Novel Quinoline-Chalcone Derivatives as Potent Antitumor Agents with Microtubule Polymerization Inhibitory Activity” (J Med Chem, 2019) come the findings set out here.

Values after ≈ are worked out from the molar mass of the structure shown. Active and inactive are the calls of the source. No cut-off for these calls is given here.

Series [1] relates to MDA-MB-231. The series is described as follows: Antiproliferative activity against human MDA-MB-231 cells after 72 hrs by MTT assay. The format is functional, cell-based. As to conditions: MDA-MB-231, 72 h.
Another series has as its system KB. The series is described as follows: Antiproliferative activity against human KB cells after 72 hrs by MTT assay. In kind it is functional, cell-based.
The nature of series [2]: Aqueous solubility in pH 7.4 phosphate buffer by HPLC analysis. The format is physicochemical.
The test system of another series is HCT-8. As to the kind of experiment: Antiproliferative activity against human HCT8 cells after 72 hrs by MTT assay. In kind it is functional, cell-based. The conditions noted are these: HCT-8, 72 h.
Series [3] in a line: Selectivity index, ratio of IC50 for human LO2 cells to IC50 for human HepG2 cells. The format is toxicity. As to conditions: LO2 cells and HepG2 cells, read-out: Ratio IC50.
For a further series, the system named is L02. As to the kind of experiment: Cytotoxicity against human LO2 cells after 72 hrs by MTT assay. As to conditions: L02, 72 h. The format is cell-based.
Another series has as its system HepG2. As to the kind of experiment: cells. The conditions noted are these: Homo sapiens, HepG2, 72 h.
The subject of series [4] is K562. The series is described as follows: Antiproliferative activity against human K562 cells after 72 hrs by MTT assay. The format is functional, cell-based. As to conditions: K562, 72 h. In general terms: Tetrazolium assays rely on reduction of a dye to a coloured formazan, in cell work by metabolically active cells.
Series [5] has as its system Homo sapiens. The series is described as follows: Antitumor activity against […] H22 cells xenografted in ICR mouse assessed as reduction in tumor volume at 20 mg/kg, iv qd for 21 consecutive days and measured every 2 days relative to control. The format is functional, organism-based. (In xenograft studies the graft and the host belong to different species.)
The test system of series [6] is K562. The series is described as follows: Cell cycle arrest in human K562 cells assessed as decrease in cdc25c expression after 48 hrs by Western blot analysis. In kind it is functional, cell-based. (In general: A western blot detects proteins with antibodies after separation by electrophoresis.)
Series [7] relates to K562. As to the kind of experiment: Induction of apoptosis in human K562 assessed as down regulation of Bcl-xl expression after 48 hrs by Western blot analysis. In kind it is functional, cell-based.
Series [8] has as its system K562. As to the kind of experiment: Induction of apoptosis in human K562 assessed as upregulation of Bad expression after 48 hrs by Western blot analysis. In kind it is functional, cell-based.
The subject of series [9] is K562. The series is described as follows: Cell cycle arrest in human K562 cells assessed as decrease in cyclin B1 expression after 48 hrs by Western blot analysis. The format is functional, cell-based.
For series [10], the target named is T1, Tubulin (Sus scrofa) (UniProt P02554+P02550). As to the kind of experiment: Inhibition of [3H]colchicine binding to biotinylated porcine tubulin at 1 uM after 2 hrs by scintillation proximity assay relative to control. In kind it is protein assay.
For series [11], the target named is T1, Tubulin (Sus scrofa). The series is described as follows: Inhibition of [3H]colchicine binding to biotinylated porcine tubulin at 5 uM after 2 hrs by scintillation proximity assay relative to control. In kind it is protein assay.
Series [12] relates to MDA-MB-231. The series is described as follows: Antimigratory activity against human MDA-MB-231 cells after 48 hrs by transwell assay. In kind it is functional, cell-based.
In series [13] the test system is K562. As to the kind of experiment: Cell cycle arrest in human K562 cells assessed as decrease in cdc2 expression after 48 hrs by Western blot analysis. The format is functional, cell-based.
The subject of series [14] is HUVEC. The series is described as follows: Inhibition of tube formation in human HUVEC cells at 5 to 20 nM after 6 hrs by tube formation assay. In kind it is functional, cell-based.
Series [15] concerns Homo sapiens. The series is described as follows: Antitumor activity against […] H22 cells xenografted in ICR mouse assessed as reduction in tumor weight administered intravenously once daily for 21 consecutive days and measured every 2 days. The format is functional.
Series [16] relates to HUVEC. The series is described as follows: Antimigratory activity against human HUVEC cells at 20 nM after 24 hrs by wound healing assay. The format is functional, cell-based.
The subject of series [17] is Homo sapiens. As to the kind of experiment: Antivascular activity against […] H22 cells xenografted in ICR mouse assessed as decrease in tumor microvessel density at 20 mg/kg, iv qd […] every 2 days for 21 days by CD31/hematoxylin staining-based immunohistochemistry assay. In kind it is functional, organism-based.
In series [18] the test system is Homo sapiens. The series is described as follows: Antitumor activity against […] H22 cells xenografted in ICR mouse assessed as reduction in tumor volume administered intravenously once daily for 21 consecutive days and measured every 2 days. In kind it is functional.
The subject of series [19] is K562. The series is described as follows: Induction of ROS generation in human K562 cells after 48 hrs by DCF-DA probe-based flow cytometric analysis. In kind it is functional, cell-based.
Series [20] relates to K562. The series is described as follows: Induction of ROS generation in human K562 cells up to 20 nM after 48 hrs in presence of N-acetyl-cycteine by DCF-DA probe-based flow cytometric analysis. In kind it is functional, cell-based.
Series [21] has as its system K562. As to the kind of experiment: Induction of apoptosis in human K562 assessed as upregulation of Bax expression after 48 hrs by Western blot analysis. In kind it is functional, cell-based.
The subject of series [22] is K562. The series is described as follows: Induction of apoptosis in human K562 assessed as chromatin condensation at 5 to 20 nM after 48 hrs by Hoechst 33342 staining-based fluorescence microscopic analysis. The format is functional, cell-based.
The next series has as its target Tubulin (Homo sapiens) (UniProt P68371+Q9H4B7+P0DPH7+P68366+Q13509+Q71U36+P04350+Q3ZCM7+P07437+P68363+Q9BQE3+Q6PEY2+Q13885+Q9BVA1+Q9BUF5). The series is described as follows: Disruption of microtubule network in human K562 cells at 30 nM after 24 hrs by scanning confocal microscopic analysis.
For series [23], the system named is K562. As to the kind of experiment: Induction of apoptosis in human K562 assessed as down regulation of Bcl-2 expression after 48 hrs by Western blot analysis. The format is functional, cell-based.
For series [24], the system named is K562. The series is described as follows: Induction of apoptosis in human K562 assessed as nuclear fragmentation at 5 to 20 nM after 48 hrs by Hoechst 33342 staining-based fluorescence microscopic analysis. The format is functional, cell-based.
Series [25] deals with T1, Tubulin (Sus scrofa). The series is described as follows: Inhibition of porcine brain tubulin polymerization measured every 2 mins for 60 mins by spectrophotometric analysis.
Series [26] deals with MDA-MB-231. The series is described as follows: Antiinvasive activity against human MDA-MB-231 cells after 48 hrs by crystal violet staining-based transwell assay. The format is functional, cell-based.
Series [27] in a line: Toxicity in ICR mouse xenografted with […] cells assessed as decrease in body weight at 8 mg/kg, iv administered every 2 days for 21 days and measured every 2 days. In kind it is organism-based. The conditions noted are these: in vivo.
A short description of series [28]: Antitumor activity against […] H22 cells xenografted in ICR mouse assessed as reduction tumor weight at 8 mg/kg, iv administered every 2 days for 21 days and measured every 2 days relative to control. The format is functional.

T1 sequence (P02550 whole entry, looked up): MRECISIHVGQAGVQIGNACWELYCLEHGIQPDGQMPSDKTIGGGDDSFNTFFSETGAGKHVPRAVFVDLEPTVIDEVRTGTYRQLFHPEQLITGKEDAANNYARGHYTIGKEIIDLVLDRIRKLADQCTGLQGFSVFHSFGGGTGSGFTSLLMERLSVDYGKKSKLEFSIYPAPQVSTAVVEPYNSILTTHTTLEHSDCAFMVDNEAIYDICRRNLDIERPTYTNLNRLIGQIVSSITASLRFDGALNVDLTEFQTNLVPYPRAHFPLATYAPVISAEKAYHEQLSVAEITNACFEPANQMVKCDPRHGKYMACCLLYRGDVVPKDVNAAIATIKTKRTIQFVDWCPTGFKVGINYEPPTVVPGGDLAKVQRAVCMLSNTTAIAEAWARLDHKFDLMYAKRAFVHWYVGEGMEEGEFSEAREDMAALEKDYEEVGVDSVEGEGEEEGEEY
T1 sequence (P02554 whole entry, looked up): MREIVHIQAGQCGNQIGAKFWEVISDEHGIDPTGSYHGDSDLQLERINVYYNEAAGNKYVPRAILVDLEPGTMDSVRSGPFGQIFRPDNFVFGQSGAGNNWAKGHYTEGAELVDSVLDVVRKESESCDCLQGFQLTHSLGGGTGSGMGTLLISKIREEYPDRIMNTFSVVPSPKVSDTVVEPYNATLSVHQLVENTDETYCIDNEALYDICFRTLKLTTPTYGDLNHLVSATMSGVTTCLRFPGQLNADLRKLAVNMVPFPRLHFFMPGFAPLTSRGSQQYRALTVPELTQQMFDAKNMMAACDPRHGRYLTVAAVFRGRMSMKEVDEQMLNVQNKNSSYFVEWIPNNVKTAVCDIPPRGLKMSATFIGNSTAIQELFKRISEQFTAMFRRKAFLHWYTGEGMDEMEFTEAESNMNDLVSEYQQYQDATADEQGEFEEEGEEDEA

Turning to `COc1ccc(/C=C/C(=O)c2cc(OC)c(OC)c(OC)c2)cc1O`, the values for the half-inhibitory concentration (IC50) with MDA-MB-231 [1], with KB and with HCT-8 were 102 nM, 108 nM and 104 nM, respectively. The solubility (commonly how much of the substance goes into solution per volume) in series [2] amounted to 3.2 µg/mL (≈ 9.29 µM).
Take `COc1ccc(/C=C(\C)C(=O)c2cc(C)nc3ccccc23)cc1N`: the selectivity ratio in series [3] turned out to be 25.6. Also, the half-maximal inhibitory concentration (IC50) – broadly, the concentration that gives 50% inhibition – in the series with L02 was 923 nM; in the series on MDA-MB-231 [1], 63 nM; in the series on KB, 25 nM; in the series on HepG2, 36 nM; in the series on K562 [4] it was 11 nM; with HCT-8, 36 nM.
Consider `COc1ccc(/C=C/C(=O)c2cc(C)nc3ccccc23)cc1O`, for which the half-inhibitory concentration (IC50) in the series on MDA-MB-231 [1] amounted to 112 nM; in the series on KB it was 123 nM; in the series with HepG2, 121 nM; in the series on K562 [4], 127 nM; in the series with HCT-8, 137 nM.
As for `COc1ccc(/C=C(\C)C(=O)c2cc(NC3CC3)nc3ccccc23)cc1O`, 58 nM corresponded to half-maximal inhibition with K562 [4] (IC50).
Same read-out and setting: for `COc1ccc(/C=C(\C)C(=O)c2cc(C)nc3ccccc23)cc1` the value was 108 nM.
For `COc1ccc(/C=C(\C)C(=O)c2ccnc3ccccc23)cc1O`, the selectivity ratio in series [3] was 38.7. The IC50 with L02 turned out to be 928 nM; in the series on MDA-MB-231 [1], 30 nM; in the series on KB, 26 nM; in the series with HepG2 it was 24 nM; in the series with K562 [4], 15 nM; in the series with HCT-8, 37 nM.
Take `COc1ccc(/C=C(\C)C(=O)c2cc(C)nc3ccccc23)cc1O`: the result with Homo sapiens [5], in the series on HUVEC [16], in the series with Homo sapiens [17], with K562 [22], on Tubulin (Homo sapiens) and in the series with K562 [24] was Active. The Activity entry in the series with K562 [6], with K562 [7], in the series on K562 [8], in the series on K562 [9], with MDA-MB-231 [12] and in the series with K562 [13] was “Dose-dependent effect” each time. Also, the Activity entry with Homo sapiens [15], with Homo sapiens [18], in the series with K562 [19], with K562 [21], with K562 [23] and in the series on MDA-MB-231 [26] was “Dose-dependent effect” in each case. Further, the inhibition (usually the relative decrease from the control value, in per cent) was 79.4% at Tubulin (Sus scrofa) [10], 92.7% at Tubulin (Sus scrofa) [11] and “Dose-dependent effect” at Tubulin (Sus scrofa) [25]. Besides, the inhibition result in the series with HUVEC [14] is “Active”. Besides, in the series with K562 [20], the result was inactive.
The compound `COc1ccc(/C=C(\C)C(=O)c2cc(C)nc3ccccc23)cc1F` registered an IC50 in the series with K562 [4] of 69 nM.
On to `CC(=O)O[C@H]1C(=O)[C@@]2(C)[C@H]([C@H](OC(=O)c3ccccc3)[C@]3(O)C[C@H](OC(=O)[C@H](O)[C@@H](NC(=O)c4ccccc4)c4ccccc4)C(C)=C1C3(C)C)[C@]1(OC(C)=O)CO[C@@H]1C[C@@H]2O` [PACLITAXEL], for which, in series [27], the Activity result was “Toxic”. Besides, the inhibition in vivo – broadly, the relative decrease from the control value, in per cent – at 8 mg/kg in series [28] came out at 90.4%.
For `C/C(=C\c1ccc2c(ccn2C)c1)C(=O)c1cc(C)nc2ccccc12`, the IC50 with MDA-MB-231 [1] came to 220 nM; in the series with KB, 124 nM; in the series on HepG2, 111 nM; in the series on K562 [4], 74 nM; in the series with HCT-8, 135 nM.
The matching figures for `C/C(=C\c1ccc2[nH]ccc2c1)C(=O)c1cc(C)nc2ccccc12`: 425 nM, 429 nM, 226 nM, 346 nM and 421 nM.
Turning to `COc1ccc(/C=C(\C)C(=O)c2cc(=O)[nH]c3ccccc23)cc1O`, in the series with K562 [4], the IC50 worked out at 1240 nM.
Turning to `CNc1cc(C(=O)/C(C)=C/c2ccc(OC)c(O)c2)c2ccccc2n1`, the selectivity ratio in series [3] worked out at 40.2. The IC50 in the series on L02 is 1090 nM; with MDA-MB-231 [1], 43 nM; in the series on KB, 29 nM; in the series with HepG2, 27 nM; in the series on K562 [4], 18 nM; in the series on HCT-8, 40 nM.
Compound `Cc1cc(C(=O)/C=C/c2ccc3[nH]ccc3c2)c2ccccc2n1` registered a half-inhibitory concentration (IC50) in the series with K562 [4] above 1000 nM.
With `COc1ccc(/C=C/C(=O)c2cc(C)nc3ccccc23)cc1N`, the IC50 in the series with MDA-MB-231 [1] was 195 nM; in the series with KB, 189 nM; in the series on HepG2 it was 223 nM; in the series with K562 [4], 850 nM; with HCT-8 it was 210 nM.
For `COc1ccc(/C=C(\C)C(=O)c2cc(CO)nc3ccccc23)cc1O`, in that order: 209 nM, 231 nM, 165 nM, 50 nM and 242 nM.
As to `CSc1ccc(/C=C(\C)C(=O)c2cc(C)nc3ccccc23)cc1`, in the series with K562 [4], the IC50 came to 563 nM.
